Assay results: patent EP0022330B1, “Synergistic antihypertensive compositions” (SMITHKLINE BECKMAN CORPORATION, priority 1979, dated 1981)
Values joined by “and” are separate entries in the source; they are usually repeats but may differ in a detail not shown here. Equal entries are not always repeated. Where two headings read alike, the source gives them in different places. Marks after values point to notes of the source that are not given here.

Tests used:
Format in all cases: in vivo
[1] = tested on: anesthetized normotensive dogs; experiment: renal dopamine-like activity by infusion in anesthetized normotensive dogs; conditions: for ED15: Canis lupus familiaris, iv, infusion, anesthetized normotensive dogs
Description: In the test procedure for determining renal dopamine-like activity by infusion in anesthetized normotensive dogs, 6 - chloro - 7,8 - dihydroxy - 1 - (p - hydroxyphenyl) - 2,3,4,5 - tetrahydro - 1 H - 3 - benzazepine has an ED15 of 0.3 µg/kg. The details of the test procedure are presented in the literature references mentioned above. The tri-O-acetyl derivative of this compound has an ED1. of 25 µg/kg, and the tri-O-isobutyryl derivative has an ED15 of 16 µg/kg. Other compounds of Formula I having renal dopaminergic activity can be used by comparing their activity in the anesthetized dog protocol with that of the above specifically named compound in preparing hypotensively effective and non-toxic dosage regimens. For example, referring to compounds of the Formula I in which R is H: […]
The renal dopaminergic ED1. values given above for the infused anesthetized dog are useful to assess quantitative and qualitative biological properties of the 1 - hydroxyphenyl - 7,8 - dihydroxy - 2,3,4,5 - tetrahydro - 1 H - 3 - benzazepine compounds of Formula I. These compounds are preferably given by oral administration. They are rapidly absorbed from the gastrointestinal tract, and have a relatively short half life in vivo. Therefore, the renal dopaminergic agent must be matched with conventional dosage regimens of the diuretic agents considering the pharmacokinetic properties of each active component. This may be accomplished by combining the renal dopaminergic agent with a diuretic in standard dosage unit forms for administration from 2-6 times daily. This would be most suitable when the diuretic agent is of a short acting nature and conventionally multiple daily doses are used to give the desired maintenanance level.

[2] = tested on: phosphate mannitol infused dog; experiment: renal clearance study in the phosphate-mannitol infused dog; conditions: change from control, triamterene 10 mg. p.o., benzazepine 2.5 mg. p.o.
Source text: Mannitol itself has some proximal natriuretic effect which tends to screen any synergistic effect of the combination. […] In the parameters presented, the control figures are actual values. Phase II, III and IV are changes from control.

[3] = tested on: glucose-infused unanesthetized dog; experiment: renal clearance study in the glucose-infused unanesthetized dog; conditions: hydrochlorothiazide 2.5 mg/kg i.v. then 3.0 mg/kg/hr infusion
Description: In the glucose-infused unanesthetized dog, 6 - chloro - 7,8 - dihydroxy - 1 - (p - hydroxyphenyl) 2,3,4,5 - tetrahydro - 1 H - 3 - benzazepine methyl sulfonate was given at the peak time of natriureses established by a maximally effective dose of hydrochlorothiazide.
All dogs were given an oral water load of 3% of body weight of tap water thirty minutes prior to initiation of the experiment. Using a constant infusion pump the dogs were infused intravenously at 3 ml/min. throughout the course of the experiment, with a 5% dextrose solution containing 3.0 mg/kg/hr of hydrochlorothiazide (HCTZ). Glomerular filtration rate was determined by the clearance of creatinine and effective renal plasma flow by the clearance of p-aminohippuric acid (PAH). […] The solution also contained 0.02% ascorbic acid. Suitable plasma levels of creatinine and p-aminohippuric acid were obtained by a twenty minute infusion of this solution to obtain equilibrium prior to starting of the initial urine collection. […] 1.5 ml/kg of a 1% creatinine solution in saline was also injected intravenously fifteen minutes prior to the start of the collection of urine. Replicate urine collections were obtained at ten minute intervals throughout the experiment. The bladder was emptied by an indwelling catheter and complete urine collections were measured by rinsing the bladder with 10 ml of water at the end of each collection interval, followed by an air wash-out. Venous blood samples were drawn from an indwelling catheter at the mid-point of each clearance period.
Plasma and urine osmolalities were determined by freezing point depression on freshly obtained samples. Urine volume and pH were recorded at the time of collection. Plasma and urine samples were stored frozen after collection, until analyzed. Analysis for sodium and potassium were made using the flame. photometer, and for chloride, creatinine, and p-aminohippuric acid, by colorimeter, using standard methodologies. These analyses were made simultaneously on each sample. Peak intensities were identified electronically, recorded by "on-line" teletype, stored and subsequently analyzed mathematically by time-shared computer against appropriate standards. Data were computed from linear least square regression lines and quality control standards were analyzed simultaneously to evaluate system reproducibility and reliability.
In the experiments where hydrochlorothiazide alone was given, twelve clearances were obtained. […] In the combination study the benzazepine was given by stomach tube at 5.0 mg/kg (base) after Ca, The compound was solubilized in water with a small amount of sugar syrup to prevent or minimize emesis. Clearances C7-C'2 (treatment) as in the hydrochlorothiazide alone tests, were taken with no wait between C6 and C7. Five dogs were used with both hydrochlorothiazide and with the combination.

[4] = tested on: glucose-infused unanesthetized dog; experiment: as above; conditions: single dose, benzazepine salt alone, glucose-infused dog protocol
[5] = individual dog, difference between averages of C1—C6 and C7—C12

Oc1ccc(C2CNCCc3c(Cl)c(O)c(O)c(Cl)c32)cc1 (centres unmarked) [D, 6,9 - dichloro - 7,8 - dihydroxy - 1 - (4 - hydroxyphenyl) - 2,3,4,5 - tetrahydro - 1H - 3 - benzazepine]
ED15 ([1]; read-out: ED15): 620 µg/kg

CC(=O)Oc1ccc(C2CNCCc3c2cc(OC(C)=O)c(OC(C)=O)c3Cl)cc1 (centres unmarked) [tri-O-acetyl derivative, 6 - chloro - 7,8 - diacetoxy - 1 - (4 - acetoxyphenyl) 2,3,4,5 - tetrahydro - 1H - 3 - benzazepine]
ED15 ([1]; read-out: ED1.): 25 µg/kg

Oc1ccc(C2CNCCc3c2cc(O)c(O)c3Cl)cc1 (centres unmarked) [6 - chloro - 7,8 - dihydroxy - 1 - (p - hydroxyphenyl) - 2,3,4,5 - tetrahydro - 1 H - 3 - benzazepine]
ED15 ([1]; read-out: ED15): 0.3 µg/kg
Glomerular Filtration Rate ([2]; Phase II): 1
Potassium Execretion ([2]; Phase II): −0.93**
Glomerular Filtration Rate ([2]; Phase III): −2
Potassium Execretion ([2]; Phase III): −1.59
Glomerular Filtration Rate ([2]; Phase IV): −2
Potassium Execretion ([2]; Phase IV): 2.02

C=CCN1CCc2c(cc(O)c(O)c2Cl)C(c2ccc(O)cc2)C1 (centres unmarked)
renal dopaminergic activity ([1]; 0.3 ug/kg/min infusion rate): demonstrated activity

Nc1nc(N)c2nc(-c3ccccc3)c(N)nc2n1 [Triamterene, triamterene]
Glomerular Filtration Rate ([2]; Phase II): −3
Potassium Execretion ([2]; Phase II): −3.65
Glomerular Filtration Rate ([2]; Phase III): −15
Potassium Execretion ([2]; Phase III): −5.44
Glomerular Filtration Rate ([2]; Phase IV): −15**
Potassium Execretion ([2]; Phase IV): −5.61

COC(=O)c1c(O)c(O)cc2c1CCNCC2c1ccc(O)cc1 (centres unmarked) [G, 6 - carbomethoxy - 7,8 - dihydroxy - 1 - (4 - hydroxyphenyl) - 2,3,4,5 - tetrahydro - 1H - 3 - benzazepine]
ED15 ([1]; read-out: ED15): 2.3 µg/kg

Oc1ccc(C2CNCCc3c2cc(O)c(O)c3Br)cc1 (centres unmarked) [B]
ED15 ([1]; read-out: ED15): 5 µg/kg

NS(=O)(=O)c1cc2c(cc1Cl)NCNS2(=O)=O [Hydrochlorothiazide, hydrochlorothiazide]
Filtration Fraction Δ ([3]; Average of five dogs): −.012
Glomerular Filtration Rate (GFR) Δ % Change ([3]; Average of five dogs): −2.4%
Ranal Plasma Flow (RPF) Δ % Change ([3]; Average of five dogs): +2.6%
Δ % Na^+ Excreted ([3]; Average of five dogs): −0.82%
Filtration Fraction Δ [3, 5]: −.01 and 0 and +.01 and −.03 (2×)
Glomerular Filtration Rate (GFR) Δ % Change [3, 5]: −6% and +6% and −7% and 0% and −5%
Ranal Plasma Flow (RPF) Δ % Change [3, 5]: −1% and +6% and −10% and +7% and +11%
Δ % Na^+ Excreted [3, 5]: −1.1% (2×) and −0.8% and −0.5% and −0.6%

Cc1c(O)c(O)cc2c1CCNCC2c1ccc(O)cc1 (centres unmarked) [C, 6 - methyl - 7,8 - dihydroxy - 1 - (4 - hydroxyphenyl) - 2,3,4,5 - tetrahydro - 1 H - 3 - benzazepine]
ED15 ([1]; read-out: ED15): 2.8 µg/kg

CC(C)C(=O)Oc1ccc(C2CNCCc3c2cc(OC(=O)C(C)C)c(OC(=O)C(C)C)c3Cl)cc1 (centres unmarked) [tri-O-isobutyryl derivative]
ED15 ([1]; read-out: ED15): 16 µg/kg

Oc1ccc(C2CNCCc3c2cc(O)c(O)c3I)cc1 (centres unmarked) [F]
ED15 ([1]; read-out: ED15): 4.2 µg/kg

Cc1c(O)c(O)c(Cl)c2c1CCNCC2c1ccc(O)cc1 (centres unmarked) [E]
ED15 ([1]; read-out: ED15): 30 µg/kg

Oc1cccc(C2CNCCc3c2cc(O)c(O)c3Cl)c1 (centres unmarked) [A, 6 - chloro - 7,8 - dihydroxy - 1 - (3 - hydroxyphenyl) - 2,3,4,5 - tetrahydro - 1 H - 3 - benzazepine]
ED15 ([1]; read-out: ED15): 0.35 µg/kg

CS(=O)(=O)O.Oc1ccc(C2CNCCc3c2cc(O)c(O)c3Cl)cc1 (centres unmarked) [6 - Chloro - 7,8 - dihydroxy - 1 - (4 - hydroxyphenyl) - 2,3,4,5 - tetrahydro - 1H - 3 - benzazepine methyl sulphonic acid salt]
diuretic effect [4]: no diuretic effect
